Experimental data published in patent US20240368174A1, “Antiviral Heterocyclic Compounds” (Enanta Pharmaceuticals, Inc., priority 2023, published 2024).

The molecules below were run on HMPV clinical isolate A2 strain TN 94-49 (assay: HMPV antiviral assay, Method 2 (LLC-MK2 cells with CP-100-356, ATP-Lite)). Details: human metapneumovirus; hMPV A2 TN/94-49, LLC-MK2 cells with CP-100-356, Method 2.
Format: cell-based
Method in brief: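 LLC-MK2 rhesus kidney cells (5,000/well) infected in suspension with HMPV A2 TN 94-49 at MOI 0.16, in serum-free medium with final 2 μg/mL TPCK-trypsin and 2 μM CP-100-356. Compounds tested in duplicate from 200 nM, 2.5-fold, 10 points; 7 days at 37 °C. Cell health by ATP-Lite luminescence; EC50 by four-parameter fit.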
`COc1cc(C(=O)NC[C@@](O)(c2ccc(F)cc2)c2cc3c(c(-c4ccc(F)c(Cl)c4Cl)n2)OC[C@]3(C)C(N)=O)cc2cn(C3CC3)nc12` [Example 41] was tested, and the EC50 was under 200 nM. In the case of `COc1cc(C(=O)NC[C@@](O)(c2ccccc2)c2cc3c(c(-c4cc(F)c(F)cc4F)n2)OC[C@]3(C)C(N)=O)cc2cn(C3CC3)nc12` [Example 171], the EC50 is reported as under 200 nM. Molecule `COc1cc(C(=O)NC[C@](O)(c2cc3c(c(-c4ccc(F)c(F)c4C)n2)OC[C@]3(C)C(N)=O)C2CC2)cc2cn(C3CC3)nc12` [Example 70] has an EC50 of under 200 nM. `C[C@]1(C(N)=O)COc2c1cc([C@@](O)(CNC(=O)c1ccc3nc(C4CC4)oc3c1)c1cccc(F)c1)nc2-c1ccc2c(c1Cl)OC(F)(F)O2` [Example 287] showed an EC50 of under 200 nM. `[2H]C([2H])([2H])c1nc2ccc(C(=O)NC[C@@](O)(c3cccc(F)c3)c3cc4c(c(-c5ccc(F)c(Cl)c5Cl)n3)OC[C@]4(C)C(N)=O)cc2o1` [Example 281] was tested, and the EC50 was under 200 nM. `C[C@]1(C(N)=O)COc2c1cc([C@@](O)(CNC(=O)c1cc(OC3CC3)n3nc(C4CC4)cc3c1)C1CC1)nc2-c1cc(Cl)c(F)cc1F` [Example 4] gave an EC50 of under 200 nM. With `COc1cc(C(=O)NC[C@@](O)(c2ccccc2)c2cc3c(c(-c4cc(C(F)F)c(F)cc4F)n2)OC[C@]3(C)C(N)=O)cc2cn(C3(F)CC3)nc12` [Example 298] the EC50 was under 200 nM. Work on `C[C@]1(C(N)=O)COc2c1cc([C@@](O)(CNC(=O)c1cc(OC3CC3)c3nn(C4CC4)cc3c1)C1CC1)nc2-c1ccc(F)c(Cl)c1Cl` [Example 23] yielded an EC50 of under 200 nM. `COc1cc(C(=O)NC[C@@](O)(c2ccccc2)c2cc3c(c(-c4cc(Cl)c(F)cc4F)n2)OC[C@]3(C)C(N)=O)cc2sc(N)nc12` [Example 157] gave an EC50 of under 200 nM. `COc1cc(C(=O)NC[C@@](O)(c2ccccn2)c2cc3c(c(-c4cc(Cl)c(F)cc4F)n2)OC[C@]3(C)C(N)=O)cc2cn(C3CC3)nc12` [Example 463] gave an EC50 of under 200 nM. Molecule `COc1cc(C(=O)NCC(O)(c2cc3c(c(-c4cc(Cl)c(F)cc4F)n2)OC[C@]3(C)C(N)=O)c2cc(C(F)F)cs2)cc2cn(C3CC3)nc12` (some centres unmarked) [Example 468] has an EC50 of under 200 nM. In the case of `COc1cc(C(=O)NC[C@](O)(c2cc3c(c(-c4cc(F)c(F)cc4F)n2)OC[C@]3(C)C(N)=O)C2CC2)cc2cc(C)c(F)nc12` [Example 21], the EC50 is reported as under 200 nM. `C[C@]1(C(N)=O)COc2c1cc([C@@](O)(CNC(=O)c1cc(OC3CC3)c3nc(C4CC4)sc3c1)C1CC1)nc2-c1cc(Cl)c(F)cc1F` [Example 3] showed an EC50 of under 200 nM. In the case of `COc1cc(C(=O)NC[C@@](O)(c2ccsc2)c2cc3c(c(-c4cc(F)c(F)cc4F)n2)OC[C@]3(C)C(N)=O)cc2cn(C3(F)CC3)nc12` [Example 179], the EC50 is reported as under 200 nM. Work on `COc1cc(C(=O)NC[C@@](O)(c2ccc(F)cc2)c2cc3c(c(-c4ccc(F)c(Cl)c4Cl)n2)OC[C@]3(C)C(N)=O)cc2cn(C3(F)CC3)nc12` [Example 43] yielded an EC50 of under 200 nM. With `COc1ccc([C@](O)(CNC(=O)c2cc(OC)c3nn(C4(F)CC4)cc3c2)c2cc3c(c(-c4cc(Cl)c(F)cc4F)n2)OC[C@]3(C)C(N)=O)cc1` [Example 166] the EC50 was under 200 nM. With `COc1cc(C(=O)NC[C@@](O)(c2ccccc2)c2cc3c(c(-c4ccc(F)c(Cl)c4Cl)n2)OC[C@]3(C)C(N)=O)cc2oc(C3CC3)nc12` [Example 278] the EC50 was under 200 nM. In the case of `COc1cc(C(=O)NC[C@](O)(c2cc3c(c(-c4cc(F)c(F)cc4C)n2)OC[C@]3(C)C(N)=O)C2CC2)cc2cn(C3CC3)nc12` [Example 50], the EC50 is reported as under 200 nM. Molecule `COc1cc(C(=O)NC[C@@](O)(c2ccc(C(F)(F)F)cc2)c2cc3c(c(-c4cc(Cl)c(F)cc4F)n2)OC[C@]3(C)C(N)=O)cc2cn(C3CC3)nc12` [Example 130] has an EC50 of over 200 nM. `COc1cc(C(=O)NC[C@@](O)(c2ccccc2)c2cc3c(c(-c4cc(C(F)F)c(F)cc4F)n2)OC[C@]3(C)C(N)=O)cc2oc(C3CC3)nc12` [Example 299] was tested, and the EC50 was under 200 nM. Molecule `COc1ccc([C@](O)(CNC(=O)c2cc(OC)c3nn(C4CC4)cc3c2)c2cc3c(c(-c4cc(Cl)c(F)cc4F)n2)OC[C@]3(C)C(N)=O)cc1` [Example 165] has an EC50 of under 200 nM. In the case of `COc1cc(C(=O)NC[C@@](O)(c2cccc(F)c2)c2cc3c(c(-c4cccc(Cl)c4Cl)n2)OC[C@]3(C)C(N)=O)cc2cn(C3(F)CC3)nc12` [Example 291], the EC50 is reported as under 200 nM.

The molecules below were run on HMPV clinical isolate A2 strain TN 94-49 (assay: HMPV antiviral assay, Method 1 (LLC-MK2 cells, ATP-Lite)). Details: human metapneumovirus, hMPV A2 TN/94-49, LLC-MK2 cells.
Format: cell-based
Method in brief: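 LLC-MK2 cells (5,000/well) infected in suspension with HMPV A2 TN 94-49 at MOI 0.005 in serum-free OptiMEM with 2 μg/mL final TPCK-trypsin, compounds in duplicate from 2 μM top, 2.5-fold, 10 points. After 7 days at 37° C, cell health by ATP-Lite luminescence normalised to virus and cell controls; EC50 from four-parameter fit.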
In the case of `COc1cc(C(=O)NC[C@@](O)(c2ccc(F)cc2)c2cc3c(c(-c4ccc(F)c(Cl)c4Cl)n2)OC[C@]3(C)C(N)=O)cc2cn(C3CC3)nc12` [Example 41], the EC50 is reported as under 500 nM. `COc1cc(C(=O)NC[C@@](O)(c2ccccc2)c2cc3c(c(-c4cc(F)c(F)cc4F)n2)OC[C@]3(C)C(N)=O)cc2cn(C3CC3)nc12` [Example 171] gave an EC50 of under 500 nM. With `COc1cc(C(=O)NC[C@](O)(c2cc3c(c(-c4ccc(F)c(F)c4C)n2)OC[C@]3(C)C(N)=O)C2CC2)cc2cn(C3CC3)nc12` [Example 70] the EC50 was under 500 nM. Molecule `C[C@]1(C(N)=O)COc2c1cc([C@@](O)(CNC(=O)c1ccc3nc(C4CC4)oc3c1)c1cccc(F)c1)nc2-c1ccc2c(c1Cl)OC(F)(F)O2` [Example 287] has an EC50 of under 500 nM. In the case of `[2H]C([2H])([2H])c1nc2ccc(C(=O)NC[C@@](O)(c3cccc(F)c3)c3cc4c(c(-c5ccc(F)c(Cl)c5Cl)n3)OC[C@]4(C)C(N)=O)cc2o1` [Example 281], the EC50 is reported as under 500 nM. Molecule `C[C@]1(C(N)=O)COc2c1cc([C@@](O)(CNC(=O)c1cc(OC3CC3)n3nc(C4CC4)cc3c1)C1CC1)nc2-c1cc(Cl)c(F)cc1F` [Example 4] has an EC50 of under 500 nM. Molecule `COc1cc(C(=O)NC[C@@](O)(c2ccccc2)c2cc3c(c(-c4cc(C(F)F)c(F)cc4F)n2)OC[C@]3(C)C(N)=O)cc2cn(C3(F)CC3)nc12` [Example 298] has an EC50 of under 500 nM. Molecule `C[C@]1(C(N)=O)COc2c1cc([C@@](O)(CNC(=O)c1cc(OC3CC3)c3nn(C4CC4)cc3c1)C1CC1)nc2-c1ccc(F)c(Cl)c1Cl` [Example 23] has an EC50 of under 500 nM. `COc1cc(C(=O)NC[C@@](O)(c2ccccc2)c2cc3c(c(-c4cc(Cl)c(F)cc4F)n2)OC[C@]3(C)C(N)=O)cc2sc(N)nc12` [Example 157] was tested, and the EC50 was under 500 nM. Work on `COc1cc(C(=O)NC[C@@](O)(c2ccccn2)c2cc3c(c(-c4cc(Cl)c(F)cc4F)n2)OC[C@]3(C)C(N)=O)cc2cn(C3CC3)nc12` [Example 463] yielded an EC50 of under 500 nM. `COc1cc(C(=O)NCC(O)(c2cc3c(c(-c4cc(Cl)c(F)cc4F)n2)OC[C@]3(C)C(N)=O)c2cc(C(F)F)cs2)cc2cn(C3CC3)nc12` (some centres unmarked) [Example 468] gave an EC50 of over 500 nM. `COc1cc(C(=O)NC[C@](O)(c2cc3c(c(-c4cc(F)c(F)cc4F)n2)OC[C@]3(C)C(N)=O)C2CC2)cc2cc(C)c(F)nc12` [Example 21] showed an EC50 of under 500 nM. For `C[C@]1(C(N)=O)COc2c1cc([C@@](O)(CNC(=O)c1cc(OC3CC3)c3nc(C4CC4)sc3c1)C1CC1)nc2-c1cc(Cl)c(F)cc1F` [Example 3], the EC50 was under 500 nM. Molecule `COc1cc(C(=O)NC[C@@](O)(c2ccsc2)c2cc3c(c(-c4cc(F)c(F)cc4F)n2)OC[C@]3(C)C(N)=O)cc2cn(C3(F)CC3)nc12` [Example 179] has an EC50 of under 500 nM. `COc1cc(C(=O)NC[C@@](O)(c2ccc(F)cc2)c2cc3c(c(-c4ccc(F)c(Cl)c4Cl)n2)OC[C@]3(C)C(N)=O)cc2cn(C3(F)CC3)nc12` [Example 43] showed an EC50 of under 500 nM. Molecule `COc1ccc([C@](O)(CNC(=O)c2cc(OC)c3nn(C4(F)CC4)cc3c2)c2cc3c(c(-c4cc(Cl)c(F)cc4F)n2)OC[C@]3(C)C(N)=O)cc1` [Example 166] has an EC50 of under 500 nM. In the case of `COc1cc(C(=O)NC[C@@](O)(c2ccccc2)c2cc3c(c(-c4ccc(F)c(Cl)c4Cl)n2)OC[C@]3(C)C(N)=O)cc2oc(C3CC3)nc12` [Example 278], the EC50 is reported as under 500 nM. Work on `COc1cc(C(=O)NC[C@](O)(c2cc3c(c(-c4cc(F)c(F)cc4C)n2)OC[C@]3(C)C(N)=O)C2CC2)cc2cn(C3CC3)nc12` [Example 50] yielded an EC50 of over 500 nM. `COc1cc(C(=O)NC[C@@](O)(c2ccc(C(F)(F)F)cc2)c2cc3c(c(-c4cc(Cl)c(F)cc4F)n2)OC[C@]3(C)C(N)=O)cc2cn(C3CC3)nc12` [Example 130] was tested, and the EC50 was over 500 nM. `COc1cc(C(=O)NC[C@@](O)(c2ccccc2)c2cc3c(c(-c4cc(C(F)F)c(F)cc4F)n2)OC[C@]3(C)C(N)=O)cc2oc(C3CC3)nc12` [Example 299] showed an EC50 of under 500 nM. `COc1ccc([C@](O)(CNC(=O)c2cc(OC)c3nn(C4CC4)cc3c2)c2cc3c(c(-c4cc(Cl)c(F)cc4F)n2)OC[C@]3(C)C(N)=O)cc1` [Example 165] was tested, and the EC50 was under 500 nM. `COc1cc(C(=O)NC[C@@](O)(c2cccc(F)c2)c2cc3c(c(-c4cccc(Cl)c4Cl)n2)OC[C@]3(C)C(N)=O)cc2cn(C3(F)CC3)nc12` [Example 291] was tested, and the EC50 was under 500 nM.
